Source: US5795561A, “Radioiodinated phospholipid ether analogues” (The Board of Regents of the University of Michigan, priority 1994, dated 1998)
Like-named read-outs stand apart in the source and are kept apart here.

Assays:
Walker 256 sarcoma [1] = test: Gamma-camera scintigraphy in tumor-bearing rats
Excerpt: (§2) Both types of lesions were located in the thigh of the rat. Tumor bearing lesions were produced by implantation of Walker 256 sarcoma cells and inflammatory granuloma lesions were developed using carrageenan irritation in accordance with the method described by Atkinson, et al., Agents and Actions, Vol. 8, pages 263-267, 1978.

[2] = tested on: inflammatory granuloma lesions; test: Gamma-camera scintigraphy in rats bearing inflammatory lesions (granuloma)
Excerpt: as §2

tumor = conditions: background; cited from earlier work
[3] = tested on: human HTB 77 ovarian adenocarcinoma, NCI 69 human small cell carcinoma, and human HTB 63 melanoma; test: In vivo tumor localization and scintigraphy in athymic nude mice with subcutaneous human tumors (Example 8)
[4] = Tissue distribution of radioactivity after IV administration in rats bearing Walker 256 sarcoma (Tables 1-4); assay type: in vivo, female Sprague Dawley rats; conditions: rat, 125I-labelled; for tissue uptake at 6 h: 6 hours after IV; for tissue uptake at 24 h: 24 hours after IV
Experimental: (§1) Radiolabelled compounds 1-[12-(m-iodophenyl)-dodecyl]-2-methyl-rac-glycero-3-phosphocholine (ET-12IP-OMe; Example 2, compound 18) and 1-[12-(m-iodophenyl)-dodecyl]-propanediol-3-phosphocholine (ET-12IP-OH; Example 3, compound 24) were prepared and administered to two sets of female Sprague Dawley rats: normal rats (control) and rats bearing tumors resulting from Walker 256 sarcoma cells which had been implanted into the thigh. The labelled compounds (5-35 μCi ^125 I) were administered intravenously in a 2% Tween 20-saline vehicle. At various times following administration the animals were sacrificed, and selected tissue samples were removed. The tissue samples were weighed and placed in cellulose acetate capsules. The radioactivity was then counted (85% efficiency) using a well scintillation counter (Searle 1185).

[5] = Tissue distribution of radioactivity after IV administration in normal (control) rats (Tables 1-4); assay type: in vivo, female Sprague Dawley rats; conditions: rat, 125I-labelled; for tissue uptake at 6 h: 6 hours after IV, N = 3, mean ± standard error; for tissue uptake at 24 h: 24 hours after IV
Experimental: as §1

[6] = Tissue distribution 24 hours after I.V. administration to rats bearing the Walker-256 carcinosarcoma (Tables 5 and 6); assay type: in vivo, Sprague-Dawley rats; conditions: rat, iv, tumor-bearing rats
Experimental: Tissue distribution studies were conducted with the alkyl lysophospholipid analogues of general Formula II.

Walker 256 sarcoma [7] = test: Tissue distribution of radioactivity after IV administration in rats bearing Walker 256 sarcoma (Tables 1-4); assay type: in vivo, female Sprague Dawley rats
Experimental: as §1

Walker 256 sarcoma [8] = conditions: rat, in vivo
Excerpt: as §2

[9] = tested on: inflammatory granuloma lesions; conditions: rat, in vivo
Excerpt: as §2

human tumor models = test: Tissue distribution in athymic mice human tumor models (FIG. 17); assay type: in vivo, athymic nude mice; conditions: 13 days post-administration, % dose/gram of tissue plotted (FIG. 17)
Experimental: FIG. 17 is a bar graph showing tissue distribution in the blood, liver, and specified tumor tissue of radioiodinated 12-(m-iodophenyl)-dodecyl phosphocholine in nude mice 13 days post-administration; and
Tumor:blood levels greater than 25:1 were recorded in all athymic mice human tumor models.
FIG. 17 is a bar graph showing the tissue distribution in the blood, liver, and specified tumor tissue of compound 50 in nude mice 13 days post-administration. The data is expressed in terms of % dose/gram of tissue.

Walker 256 sarcomas = test: In vivo tumor localization in rats with intramuscular Walker 256 sarcomas (Example 8); design: species or system Sprague-Dawley rats; conditions: intravenous injection
Experimental: 12-(m-Iodophenyl)dodecyl phosphocholine (compound 50) was administered by intravenous injection to Sprague-Dawley rats with intramuscular Walker 256 sarcomas and athymic nude mice with subcutaneous human tumors, specifically, human HTB 77 ovarian adenocarcinoma, NCI 69 human small cell carcinoma, and human HTB 63 melanoma.

[10] = tested on: HTB 63 human melanoma tumors; test: Tissue distribution in nude mice bearing HTB 63 human melanoma tumors (FIG. 18); assay type: in vivo; conditions: 13 days post-injection (FIG. 18)
Excerpt: FIG. 18 is a bar graph showing tissue distribution of radioiodinated 12-(m-iodophenyl)-dodecyl phosphocholine in nude mice bearing HTB 63 human melanoma tumors at 13 days post-injection.
FIG. 18 is a bar graph which vividly illustrates the relative difference in tissue concentration of compound 50 in nude mice bearing HTB 63 human melanoma tumors at 13 days post-injection. The tissue concentration in the tumor tissue is remarkable.

[11] = whole body scans 24 hours after administration
[12] = blood, tumor-bearing rats, N = 3, mean ± standard error, read-out: Radioactivity in blood
[13] = kidney, tumor-bearing rats, N = 3, mean ± standard error, read-out: Radioactivity in kidney
[14] = liver, tumor-bearing rats, N = 3, mean ± standard error, read-out: Radioactivity in liver
[15] = lung, tumor-bearing rats, N = 3, mean ± standard error, read-out: Radioactivity in lung
[16] = muscle, tumor-bearing rats, N = 3, mean ± standard error, read-out: Radioactivity in muscle
[17] = walker 256 tumor, Walker 256 sarcoma implanted in thigh, N = 3, mean ± standard error, read-out: Radioactivity in tumor
[18] = blood, read-out: Radioactivity in blood
[19] = kidney, read-out: Radioactivity in kidney
[20] = liver, read-out: Radioactivity in liver
[21] = lung, read-out: Radioactivity in lung
[22] = muscle, read-out: Radioactivity in muscle
[23] = adrenal, read-out: Distribution of radioactivity: adrenal
[24] = blood, read-out: Distribution of radioactivity: blood
[25] = read-out: Distribution of radioactivity: tumor
[26] = kidney, read-out: Distribution of radioactivity: kidney
[27] = liver, read-out: Distribution of radioactivity: liver
[28] = lung, read-out: Distribution of radioactivity: lung
[29] = muscle, read-out: Distribution of radioactivity: muscle
[30] = thyroid, read-out: Distribution of radioactivity: thyroid

O=C([O-])CC(O)(CC(=O)[O-])C(=O)[O-].[67Ga+3] [gallium-67 citrate]
accumulation in tumor (scintigraphic scan) (Walker 256 sarcoma [1]; 24 hours after administration): high accumulation
accumulation in liver (scintigraphic scan) (Walker 256 sarcoma [1]; tumor-bearing rat, 24 hours after administration): low accumulation
localization in tumor (Walker 256 sarcoma [1]; [11]): capable of localizing in the tumor
accumulation in granuloma (inflammatory lesion), scintigraphic scan ([2]; 24 hours after administration, for ET-12IP-OMe in relation to liver): high accumulation
accumulation in liver (scintigraphic scan) ([2]; granuloma-bearing rat, 24 hours after administration): high accumulation
localization in the inflammatory lesion [2, 11]: found to localize in the inflammatory lesion
accumulation in inflammatory lesions (tumor): also accumulates in a variety of other inflammatory lesions
alteration of distribution by steroidal and antineoplastic drugs (tumor): can be altered by a variety of steroidal and antineoplastic drugs
localization in tumor (tumor): will localize, or accumulate, in a tumor

CCCCCCCCCCCCCCCCOP(=O)([O-])OCC[N+](C)(C)Cc1cccc(I)c1 [Compound 60, hexadecyl-2-[N,N-dimethyl-N-(m-iodobenzyl)-ammonium] ethylphosphate]
localization in tumor tissues ([3]; similar studies to those with compound 50 (rat and athymic mouse models)): exhibited localization in tumor tissues

C[N+](C)(C)CCOP(=O)([O-])OCCCOCCCCCCCCCCCCc1cccc([125I])c1 [ET-12IP-H, 1-[12-(m-iodophenyl)-dodecyl]-propanediol-3-phosphocholine]
tissue uptake at 6 h [4, 12]: 0.239 ± 0.024 %ID/g
tissue uptake at 24 h ([4]; blood, tumor-bearing rats, N = 3, mean ± standard error (Table 4), read-out: Radioactivity in blood): 0.036 ± 0.004 %ID/g
tissue uptake at 6 h [4, 13]: 1.77 ± 0.108 %ID/g
tissue uptake at 24 h ([4]; kidney, tumor-bearing rats, N = 3, mean ± standard error (Table 4), read-out: Radioactivity in kidney): 0.235 ± 0.018 %ID/g
tissue uptake at 6 h [4, 14]: 0.892 ± 0.083 %ID/g
tissue uptake at 24 h ([4]; liver, tumor-bearing rats, N = 3, mean ± standard error (Table 4), read-out: Radioactivity in liver): 0.139 ± 0.01 %ID/g
tissue uptake at 6 h [4, 15]: 0.525 %ID/g
tissue uptake at 24 h ([4]; lung, tumor-bearing rats, N = 3, mean ± standard error (Table 4), read-out: Radioactivity in lung): 0.105 %ID/g
tissue uptake at 6 h [4, 16]: 0.05 ± 0.009 %ID/g
tissue uptake at 24 h ([4]; muscle, tumor-bearing rats, N = 3, mean ± standard error (Table 4), read-out: Radioactivity in muscle): 0.014 ± 0.001 %ID/g
tissue uptake at 6 h [4, 17]: 1.03 ± 0.158 %ID/g
tissue uptake at 24 h ([4]; walker 256 tumor, Walker 256 sarcoma implanted in thigh, N = 3, mean ± standard error (Table 4), read-out: Radioactivity in tumor): 0.463 ± 0.063 %ID/g
tissue uptake at 6 h [5, 18]: 0.475 ± 0.078 %ID/g
tissue uptake at 24 h ([5]; blood, N = 3, mean ± standard error (Table 4), read-out: Radioactivity in blood): 0.047 ± 0.035 %ID/g
tissue uptake at 6 h [5, 19]: 2.6 ± 0.107 %ID/g
tissue uptake at 24 h ([5]; kidney, N = 3, mean ± standard error (Table 4), read-out: Radioactivity in kidney): 0.257 ± 0.01 %ID/g
tissue uptake at 6 h [5, 20]: 1.35 ± 0.047 %ID/g
tissue uptake at 24 h ([5]; liver, N = 3, mean ± standard error (Table 4), read-out: Radioactivity in liver): 0.142 ± 0.033 %ID/g
tissue uptake at 6 h [5, 21]: 0.816 ± 0.031 %ID/g
tissue uptake at 24 h ([5]; lung, N = 3, mean ± standard error (Table 4), read-out: Radioactivity in lung): 0.129 ± 0.013 %ID/g
tissue uptake at 6 h [5, 22]: 0.083 ± 0.009 %ID/g
tissue uptake at 24 h ([5]; muscle, N = 3, mean ± standard error (Table 4), read-out: Radioactivity in muscle): 0.025 ± 0.001 %ID/g
tissue uptake at 24 h [6, 23]: 0.274 %ID/g
tissue uptake at 24 h [6, 24]: 0.036 %ID/g
tissue uptake at 24 h [6, 25]: 0.463 %ID/g
tissue uptake at 24 h [6, 26]: 0.235 %ID/g
tissue uptake at 24 h [6, 27]: 0.139 %ID/g
tissue uptake at 24 h [6, 28]: 0.105 %ID/g
tissue uptake at 24 h [6, 29]: 0.014 %ID/g
tissue uptake at 24 h [6, 30]: 8.45 %ID/g

COC(COCCCCCCCCCCCCc1cccc([125I])c1)COP(=O)([O-])OCC[N+](C)(C)C (racemic) [ET-12IP-OMe, 1-[12-(m-iodophenyl)-dodecyl]-2-methyl-rac-glycero-3-phosphocholine]
clearance of radioactivity from tissues (Walker 256 sarcoma [7]; by 24 hours): radioactivity had cleared significantly from all of the tissues except for tumor tissue
tissues with the highest concentrations of radioactivity (Walker 256 sarcoma [7]; six hours following administration): liver, kidney, and tumor tissues exhibiting the highest concentrations
tissue uptake at 6 h [4, 12]: 0.231 ± 0.008 %ID/g
tissue uptake at 24 h [4, 12]: 0.096 ± 0.023 %ID/g
tissue uptake at 6 h [4, 13]: 1.31 ± 0.091 %ID/g
tissue uptake at 24 h [4, 13]: 0.463 ± 0.111 %ID/g
tissue uptake at 6 h [4, 14]: 3.59 ± 0.189 %ID/g
tissue uptake at 24 h [4, 14]: 0.743 ± 0.105 %ID/g
tissue uptake at 6 h [4, 15]: 0.873 ± 0.081 %ID/g
tissue uptake at 24 h [4, 15]: 0.299 ± 0.017 %ID/g
tissue uptake at 6 h [4, 16]: 0.046 ± 0.001 %ID/g
tissue uptake at 24 h [4, 16]: 0.027 ± 0.006 %ID/g
tissue uptake at 6 h [4, 17]: 1.12 ± 0.024 %ID/g
tissue uptake at 24 h [4, 17]: 1.11 ± 0.016 %ID/g
tissue uptake at 6 h [5, 18]: 0.105 ± 0.009 %ID/g
tissue uptake at 24 h ([5]; blood, N = 4, mean ± standard error, read-out: Radioactivity in blood): 0.085 ± 0.001 %ID/g
tissue uptake at 6 h [5, 19]: 0.65 ± 0.114 %ID/g
tissue uptake at 24 h ([5]; kidney, N = 4, mean ± standard error, read-out: Radioactivity in kidney): 0.426 ± 0.03 %ID/g
tissue uptake at 6 h [5, 20]: 1.74 ± 0.125 %ID/g
tissue uptake at 24 h ([5]; liver, N = 4, mean ± standard error, read-out: Radioactivity in liver): 0.675 ± 0.02 %ID/g
tissue uptake at 6 h [5, 21]: 0.356 ± 0.012 %ID/g
tissue uptake at 24 h ([5]; lung, N = 4, mean ± standard error, read-out: Radioactivity in lung): 0.218 ± 0.01 %ID/g
tissue uptake at 6 h [5, 22]: 0.023 %ID/g
tissue uptake at 24 h ([5]; muscle, N = 4, mean ± standard error, read-out: Radioactivity in muscle): 0.034 ± 0.004 %ID/g
tissue uptake at 24 h [6, 23]: 0.436 %ID/g
tissue uptake at 24 h [6, 24]: 0.096 %ID/g
tissue uptake at 24 h [6, 25]: 1.11 %ID/g
tissue uptake at 24 h [6, 26]: 0.463 %ID/g
tissue uptake at 24 h [6, 27]: 0.743 %ID/g
tissue uptake at 24 h [6, 28]: 0.299 %ID/g
tissue uptake at 24 h [6, 29]: 0.027 %ID/g
tissue uptake at 24 h [6, 30]: 7.34 %ID/g
localization in tumor (Walker 256 sarcoma [8]): capable of localizing in the tumor
localization in the inflammatory lesion [9]: little activity was associated with this area

C[N+](C)(C)CCOP(=O)([O-])OCCCCCCCCCCCCc1cccc(I)c1 [compound 50, 12-(m-iodophenyl)-dodecyl phosphocholine]
tissue distribution in blood, liver and specified tumor tissue (human tumor models): the tumor contained the largest amount of radioactivity
tumor localization (Walker 256 sarcomas): excellent tumor localization
tissue concentration in the tumor tissue [10]: remarkable
clearance of background activity ([3]; beyond five days post-injection): all background activity had cleared from the liver and gastrointestinal tract
tumor localization ([3]; intravenous injection): excellent tumor localization
